Patent US20100113430A1, “THIOXANTHENE DERIVATES USEFUL TO TREAT INFECTIOUS DISEASES” (BKG PHARMA APS, priority 2007, published 2010)
pEC50: −log10 of the molar value. ≈ marks a conversion by molar mass, not a printed value.

Columns and labels:
Type in all cases: cell-based
[1] = system: HIV-1 strain HTLV-IIIB; experiment: Inhibition of HIV-1 replication in MT4 cells (MTT assay); conditions: HIV-1 IIIB 0.005 MOI, six days
Procedure: The antiviral effect of N-dealkyl-trans-flupenthixol and N-dealkyl-trans-clopenthixol was studied by checkerboard studies exposing HIV infected cells to 0-3 μM of trans-clopenthixol. Each experiment was repeated in triple duplicate. MIC values represent the mean values of two separate experiments.
The HIV-1 strain HTLV-IIIB were propagated in H9 cells at 37° C., 5% CO2 using RPMI 1640 with 10% heat-inactivated foetal calf serum (FCS) and antibiotics (growth medium). Culture supernatant was filtered ([…]), aliquoted, and stored at −80° C. until use. The HIV-1 strain was obtained from NIH AIDS Research and Reference Program.
Compounds were examined for possible antiviral activity against strain IIIB of HIV-1 using MT4 cells as target cells. MT4 cells were incubated with virus (0.005 MOI) and growth medium containing the test dilutions of compound(s) for six days in parallel with virus-infected and uninfected control cultures without compound added. Expression of HIV in the cultures was indirectly quantified using the MTT assay as previously described. Compounds mediating less than 30% reduction of HIV expression were considered without biological activity. […] The 50% inhibitory concentration was determined by interpolation from the plots of percent inhibition versus concentration of compound. […]

[2] = system: Gram negative sp.; experiment: MIC/IC90 broad spectrum, Gram negative sp.; conditions: 25 strains, 20 resistant
Procedure: Cell growth was tested using the Minimal Inhibitory Concentration (MIC) susceptibility tests by use of the microdilution broth method in accordance to the NCCLS Guidelines (NCCLS Guidelines, Methods for Dilution Antimicrobial Susceptibility Tests for Bacteria That Grow Aerobically; Approved Standard, Sixth Edition, Volume 23; Number 2). The minimum inhibitory concentration (MIC), is defined ad the lowest concentration of drug which inhibits growth of the test organism, in the sense that no visible growth is detected (total inhibition of growth). In example 2 MIC of the compounds used on fungal microorganisms was determined from the IC90 measurements according to NCCLS Guidelines.
A log phase culture of bacteria was diluted with fresh pre-warmed Mueller-Hinton medium and adjusted to a defined OD at 600 nm in order to give a final concentration of 1×10^4-5 bacteria/ml medium. The bacterial culture was transferred to microtiter-plates and culture was added to each well. Drug was added to the bacterial culture in the wells as two-fold dilution series of drug in order to give final concentrations ranging from 0.03 to 128 μg/ml. Trays were incubated at 37° C. by shaking in a robot analyzer, PowerWavex, software KC^4′ Kebo.Lab, Copenhagen, for 16 h and optical densities were measured at 600 nm during the incubation time in order to record growth curves. Wells containing bacterial culture without drug were used as controls to ensure correct inoculum size and bacterial growth during the incubation. Cultures were tested in order to detect contaminations. Each experiment was repeated in triplicate. MIC values represent the mean values of two separate triplicate experiments. Intra- and interassay variation was <5%.
Inhibition 90 (IC90) is defined as: OD responding a 90% growth inhibition.
A broad spectrum of bacteria were cultured and assayed as described above for susceptibility towards N-dealkyl-clopenthixol.

[3] = system: uninfected MT4 cells; experiment: Cytotoxic effect in uninfected MT4 cultures; conditions: six days
Procedure: Compounds were examined for possible antiviral activity against strain IIIB of HIV-1 using MT4 cells as target cells. MT4 cells were incubated with virus (0.005 MOI) and growth medium containing the test dilutions of compound(s) for six days in parallel with virus-infected and uninfected control cultures without compound added. Expression of HIV in the cultures was indirectly quantified using the MTT assay as previously described. Compounds mediating less than 30% reduction of HIV expression were considered without biological activity. Compounds were tested in parallel for cytotoxic effect in uninfected MT4 cultures containing the test dilutions of compound as described above. Cultures for test of both antiviral activity and cytotoxic effect were set up in triple duplicates, 200 ml per culture in micro titre plates. A 30% inhibition of cell growth relative to control cultures was considered significant. The 50% inhibitory concentration was determined by interpolation from the plots of percent inhibition versus concentration of compound. CC50 is defined as the inhibitory concentration that reduces cellular growth or viability of uninfected cells by 50%.

In the case of `Clc1ccc2c(c1)/C(=C/CCN1CCNCC1)c1ccccc1S2` [N-dealkyl-trans-clopenthixol, trans-1-(3-(2-chloro-thioxanthen-9-ylidene)propyl)piperazine], the pEC50 [1] was 5.70, the “MIC (mean)” value [2] was 2 µg/mL (≈ 5.6 µM) and the MIC range [2] was 0.5 to 2 µg/mL. For the same compound, the CC50 [3] was greater than 3 µM.
